ChEMBL document CHEMBL1201861, “Genomics of Drug Sensitity in Cancer screening data, Wellcome Trust Sanger Institute”

Each compound was assayed on Panc1005 (assay: cells). Conditions: Homo sapiens.
Type: functional, cell-based
Description: SANGER: Inhibition of human PANC-10-05 cell growth in a cell viability assay.

Row | Structure (SMILES) | IC50
1 | CN(NC(=O)CC(=O)NN(C)C(=S)c1ccccc1)C(=S)c1ccccc1 [ELESCLOMOL] | 0.11 µM

The compounds below were run on OE33 (assay: cells). Conditions: Homo sapiens.
Type: functional, cell-based
Description: SANGER: Inhibition of human OE33 cell growth in a cell viability assay.

Row | Structure (SMILES) | IC50
2 | CN(NC(=O)CC(=O)NN(C)C(=S)c1ccccc1)C(=S)c1ccccc1 [ELESCLOMOL] | > 0.2 µM

These compounds were tested on Huh-7 (assay: cells). Conditions: Homo sapiens.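 Note: HuH-7 cell growth inhibition, read out with a cell viability assay.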
Type: functional, cell-based
Description: SANGER: Inhibition of human HuH-7 cell growth in a cell viability assay.

Row | Structure (SMILES) | IC50
3 | CN(NC(=O)CC(=O)NN(C)C(=S)c1ccccc1)C(=S)c1ccccc1 [ELESCLOMOL] | 0.0176 µM

Each compound was assayed on KP-4 (assay: cells). Conditions: Homo sapiens.
Type: functional, cell-based
Description: SANGER: Inhibition of human KP-4 cell growth in a cell viability assay.

Row | Structure (SMILES) | IC50
4 | CN(NC(=O)CC(=O)NN(C)C(=S)c1ccccc1)C(=S)c1ccccc1 [ELESCLOMOL] | 0.00217 µM

Each compound was assayed on EFM-19 (assay: cells). Conditions: Homo sapiens.
Type: functional, cell-based
Description: SANGER: Inhibition of human EFM-19 cell growth in a cell viability assay.

Row | Structure (SMILES) | IC50
5 | CN(NC(=O)CC(=O)NN(C)C(=S)c1ccccc1)C(=S)c1ccccc1 [ELESCLOMOL] | 0.0825 µM

Each compound was assayed on PANC-08-13 (assay: cells). Conditions: Homo sapiens.
Type: functional, cell-based
Description: SANGER: Inhibition of human PANC-08-13 cell growth in a cell viability assay.

Row | Structure (SMILES) | IC50
6 | CN(NC(=O)CC(=O)NN(C)C(=S)c1ccccc1)C(=S)c1ccccc1 [ELESCLOMOL] | 0.00963 µM

The compounds below were run on SK-MEL-28 (assay: cells). Conditions: Homo sapiens.
Type: functional, cell-based
Description: SANGER: Inhibition of human SK-MEL-28 cell growth in a cell viability assay.

Row | Structure (SMILES) | IC50
7 | CN(NC(=O)CC(=O)NN(C)C(=S)c1ccccc1)C(=S)c1ccccc1 [ELESCLOMOL] | 0.0797 µM

These compounds were tested on 769-P (assay: cells). Conditions: Homo sapiens.
Type: functional, cell-based
Description: SANGER: Inhibition of human 769-P cell growth in a cell viability assay.

Row | Structure (SMILES) | IC50
8 | CN(NC(=O)CC(=O)NN(C)C(=S)c1ccccc1)C(=S)c1ccccc1 [ELESCLOMOL] | 0.00982 µM

The compounds below were run on NCI-H441 (assay: cells). Conditions: Homo sapiens.
Type: functional, cell-based
Description: SANGER: Inhibition of human NCI-H441 cell growth in a cell viability assay.

Row | Structure (SMILES) | IC50
9 | CN(NC(=O)CC(=O)NN(C)C(=S)c1ccccc1)C(=S)c1ccccc1 [ELESCLOMOL] | > 0.2 µM

What follows are compounds tested on 647-V (assay: cells). Conditions: Homo sapiens.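 Note: growth inhibition of 647-V cells, read out with a cell viability assay.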
Type: functional, cell-based
Description: SANGER: Inhibition of human 647-V cell growth in a cell viability assay.

Row | Structure (SMILES) | IC50
10 | CN(NC(=O)CC(=O)NN(C)C(=S)c1ccccc1)C(=S)c1ccccc1 [ELESCLOMOL] | 0.0069 µM

Each compound was assayed on G-401 (assay: cells). Conditions: Homo sapiens.
Type: functional, cell-based
Description: SANGER: Inhibition of human G-401 cell growth in a cell viability assay.

Row | Structure (SMILES) | IC50
11 | CN(NC(=O)CC(=O)NN(C)C(=S)c1ccccc1)C(=S)c1ccccc1 [ELESCLOMOL] | 0.00543 µM

These compounds were tested on NCI-H1623 (assay: cells). Conditions: Homo sapiens.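 Note: cell viability assay used as the read-out for growth inhibition of NCI-H1623 cells.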
Type: functional, cell-based
Description: SANGER: Inhibition of human NCI-H1623 cell growth in a cell viability assay.

Row | Structure (SMILES) | IC50
12 | CN(NC(=O)CC(=O)NN(C)C(=S)c1ccccc1)C(=S)c1ccccc1 [ELESCLOMOL] | 0.179 µM

Each compound was assayed on MHH-ES-1 (assay: cells). Conditions: Homo sapiens.
Type: functional, cell-based
Description: SANGER: Inhibition of human MHH-ES-1 cell growth in a cell viability assay.

Row | Structure (SMILES) | IC50
13 | CN(NC(=O)CC(=O)NN(C)C(=S)c1ccccc1)C(=S)c1ccccc1 [ELESCLOMOL] | 0.00569 µM

Each compound was assayed on 8305C (assay: cells). Conditions: Homo sapiens.
Type: functional, cell-based
Description: SANGER: Inhibition of human 8305C cell growth in a cell viability assay.

Row | Structure (SMILES) | IC50
14 | CN(NC(=O)CC(=O)NN(C)C(=S)c1ccccc1)C(=S)c1ccccc1 [ELESCLOMOL] | 0.192 µM

The compounds below were run on BCPAP (assay: cells). Conditions: Homo sapiens.
Type: functional, cell-based
Description: SANGER: Inhibition of human BCPAP cell growth in a cell viability assay.

Row | Structure (SMILES) | IC50
15 | CN(NC(=O)CC(=O)NN(C)C(=S)c1ccccc1)C(=S)c1ccccc1 [ELESCLOMOL] | 0.00134 µM

These compounds were tested on SCC-25 (assay: cells). Conditions: Homo sapiens.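 Note: growth inhibition of SCC-25 cells, measured with a cell viability assay.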
Type: functional, cell-based
Description: SANGER: Inhibition of human SCC-25 cell growth in a cell viability assay.

Row | Structure (SMILES) | IC50
16 | CN(NC(=O)CC(=O)NN(C)C(=S)c1ccccc1)C(=S)c1ccccc1 [ELESCLOMOL] | 0.023 µM

What follows are compounds tested on OVCAR-8 (assay: cells). Conditions: Homo sapiens.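 Note: growth inhibition of human OVCAR-8 cells, read out by a cell viability assay.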
Type: functional, cell-based
Description: SANGER: Inhibition of human OVCAR-8 cell growth in a cell viability assay.

Row | Structure (SMILES) | IC50
17 | CN(NC(=O)CC(=O)NN(C)C(=S)c1ccccc1)C(=S)c1ccccc1 [ELESCLOMOL] | 0.00399 µM

What follows are compounds tested on P12-Ichikawa (assay: cells). Conditions: Homo sapiens.
Type: functional, cell-based

Row | Structure (SMILES) | IC50
18 | CN(NC(=O)CC(=O)NN(C)C(=S)c1ccccc1)C(=S)c1ccccc1 [ELESCLOMOL] | 0.00404 µM

The compounds below were run on MeWo (assay: cells). Conditions: Homo sapiens.
Type: functional, cell-based
Description: SANGER: Inhibition of human Mewo cell growth in a cell viability assay.

Row | Structure (SMILES) | IC50
19 | CN(NC(=O)CC(=O)NN(C)C(=S)c1ccccc1)C(=S)c1ccccc1 [ELESCLOMOL] | 0.0263 µM

These compounds were tested on RO82-W-1 (assay: cells). Conditions: Homo sapiens.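 Note: growth inhibition of human RO82-W-1 cells, measured with a cell viability assay.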
Type: functional, cell-based
Description: SANGER: Inhibition of human RO82-W-1 cell growth in a cell viability assay.

Row | Structure (SMILES) | IC50
20 | CN(NC(=O)CC(=O)NN(C)C(=S)c1ccccc1)C(=S)c1ccccc1 [ELESCLOMOL] | 0.0262 µM

These compounds were tested on HC-1 (assay: cells). Conditions: Homo sapiens, HC-1.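 Note: growth inhibition of HC-1 cells measured by a cell viability assay.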
Type: functional, cell-based, Homo sapiens
Description: SANGER: Inhibition of human HC-1 cell growth in a cell viability assay.

Row | Structure (SMILES) | IC50
21 | CN(NC(=O)CC(=O)NN(C)C(=S)c1ccccc1)C(=S)c1ccccc1 [ELESCLOMOL] | > 0.2 µM

Each compound was assayed on RCM-1 (assay: cells). Conditions: Homo sapiens.
Type: functional, cell-based
Description: SANGER: Inhibition of human RCM-1 cell growth in a cell viability assay.

Row | Structure (SMILES) | IC50
22 | CN(NC(=O)CC(=O)NN(C)C(=S)c1ccccc1)C(=S)c1ccccc1 [ELESCLOMOL] | > 0.2 µM

Each compound was assayed on DK-MG (assay: cells). Conditions: Homo sapiens.
Type: functional, cell-based
Description: SANGER: Inhibition of human DK-MG cell growth in a cell viability assay.

Row | Structure (SMILES) | IC50
23 | CN(NC(=O)CC(=O)NN(C)C(=S)c1ccccc1)C(=S)c1ccccc1 [ELESCLOMOL] | 0.0171 µM

What follows are compounds tested on NCI-H28 (assay: cells). Conditions: Homo sapiens.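 Note: growth inhibition of human NCI-H28 cells, read out as cell viability.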
Type: functional, cell-based
Description: SANGER: Inhibition of human NCI-H28 cell growth in a cell viability assay.

Row | Structure (SMILES) | IC50
24 | CN(NC(=O)CC(=O)NN(C)C(=S)c1ccccc1)C(=S)c1ccccc1 [ELESCLOMOL] | 0.0137 µM

These compounds were tested on SAOS-2 (assay: cells). Conditions: Homo sapiens.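 Note: growth inhibition of human Saos-2 cells determined by a cell viability assay.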
Type: functional, cell-based
Description: SANGER: Inhibition of human Saos-2 cell growth in a cell viability assay.

Row | Structure (SMILES) | IC50
25 | CN(NC(=O)CC(=O)NN(C)C(=S)c1ccccc1)C(=S)c1ccccc1 [ELESCLOMOL] | 0.0111 µM

What follows are compounds tested on WM-115 (assay: cells). Conditions: Homo sapiens.
Type: functional, cell-based
Description: SANGER: Inhibition of human WM-115 cell growth in a cell viability assay.

Row | Structure (SMILES) | IC50
26 | CN(NC(=O)CC(=O)NN(C)C(=S)c1ccccc1)C(=S)c1ccccc1 [ELESCLOMOL] | 0.034 µM

Each compound was assayed on A-431 (assay: cells). Conditions: Homo sapiens.
Type: functional, cell-based
Description: SANGER: Inhibition of human A431 cell growth in a cell viability assay.

Row | Structure (SMILES) | IC50
27 | CN(NC(=O)CC(=O)NN(C)C(=S)c1ccccc1)C(=S)c1ccccc1 [ELESCLOMOL] | 0.126 µM

The compounds below were run on HT55 (assay: cells). Conditions: Homo sapiens.
Type: functional, cell-based
Description: SANGER: Inhibition of human HT55 cell growth in a cell viability assay.

Row | Structure (SMILES) | IC50
28 | CN(NC(=O)CC(=O)NN(C)C(=S)c1ccccc1)C(=S)c1ccccc1 [ELESCLOMOL] | > 0.2 µM

The compounds below were run on NCI-H460 (assay: cells). Conditions: Homo sapiens.
Type: functional, cell-based
Description: SANGER: Inhibition of human NCI-H460 cell growth in a cell viability assay.

Row | Structure (SMILES) | IC50
29 | CN(NC(=O)CC(=O)NN(C)C(=S)c1ccccc1)C(=S)c1ccccc1 [ELESCLOMOL] | > 0.2 µM

What follows are compounds tested on MIA PaCa-2 (assay: cells). Conditions: Homo sapiens.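 Note: growth inhibition of MIA PaCa-2 cells, read out with a cell viability assay.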
Type: functional, cell-based
Description: SANGER: Inhibition of human MIA-PaCa-2 cell growth in a cell viability assay.

Row | Structure (SMILES) | IC50
30 | CN(NC(=O)CC(=O)NN(C)C(=S)c1ccccc1)C(=S)c1ccccc1 [ELESCLOMOL] | 0.0171 µM

These compounds were tested on 5637 (assay: cells). Conditions: Homo sapiens.
Type: functional, cell-based
Description: SANGER: Inhibition of human 5637 cell growth in a cell viability assay.

Row | Structure (SMILES) | IC50
31 | CN(NC(=O)CC(=O)NN(C)C(=S)c1ccccc1)C(=S)c1ccccc1 [ELESCLOMOL] | 0.0355 µM

What follows are compounds tested on MG-63 (assay: cells). Conditions: Homo sapiens.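 Note: growth inhibition of human MG-63 cells, read out with a cell viability assay.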
Type: functional, cell-based
Description: SANGER: Inhibition of human MG-63 cell growth in a cell viability assay.

Row | Structure (SMILES) | IC50
32 | CN(NC(=O)CC(=O)NN(C)C(=S)c1ccccc1)C(=S)c1ccccc1 [ELESCLOMOL] | > 0.2 µM

These compounds were tested on EW-22 (assay: cells). Conditions: Homo sapiens.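 Note: growth inhibition of the EW-22 cell line, measured with a cell viability readout.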
Type: functional, cell-based
Description: SANGER: Inhibition of human EW-22 cell growth in a cell viability assay.

Row | Structure (SMILES) | IC50
33 | CN(NC(=O)CC(=O)NN(C)C(=S)c1ccccc1)C(=S)c1ccccc1 [ELESCLOMOL] | 0.0747 µM

The compounds below were run on MKN-28 (assay: cells). Conditions: Homo sapiens.
Type: functional, cell-based
Description: SANGER: Inhibition of human MKN28 cell growth in a cell viability assay.

Row | Structure (SMILES) | IC50
34 | CN(NC(=O)CC(=O)NN(C)C(=S)c1ccccc1)C(=S)c1ccccc1 [ELESCLOMOL] | 0.014 µM

These compounds were tested on 23132-87 (assay: cells). Conditions: Homo sapiens.
Type: functional, cell-based
Description: SANGER: Inhibition of human 23132-87 cell growth in a cell viability assay.

Row | Structure (SMILES) | IC50
35 | CN(NC(=O)CC(=O)NN(C)C(=S)c1ccccc1)C(=S)c1ccccc1 [ELESCLOMOL] | 0.0249 µM

What follows are compounds tested on BHT-101 (assay: cells). Conditions: Homo sapiens.
Type: functional, cell-based
Description: SANGER: Inhibition of human BHT-101 cell growth in a cell viability assay.

Row | Structure (SMILES) | IC50
36 | CN(NC(=O)CC(=O)NN(C)C(=S)c1ccccc1)C(=S)c1ccccc1 [ELESCLOMOL] | 0.00372 µM

What follows are compounds tested on SK-N-AS (assay: cells). Conditions: Homo sapiens.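 Note: growth inhibition of human SK-N-AS cells, measured with a cell viability assay.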
Type: functional, cell-based
Description: SANGER: Inhibition of human SK-N-AS cell growth in a cell viability assay.

Row | Structure (SMILES) | IC50
37 | CN(NC(=O)CC(=O)NN(C)C(=S)c1ccccc1)C(=S)c1ccccc1 [ELESCLOMOL] | 0.03 µM

These compounds were tested on U2OS (assay: cells). Conditions: Homo sapiens.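 Note: growth inhibition of human U-2-OS cells, determined with a cell viability assay.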
Type: functional, cell-based, U-2-OS
Description: SANGER: Inhibition of human U-2-OS cell growth in a cell viability assay.

Row | Structure (SMILES) | IC50
38 | CN(NC(=O)CC(=O)NN(C)C(=S)c1ccccc1)C(=S)c1ccccc1 [ELESCLOMOL] | 0.0197 µM

What follows are compounds tested on NCI-H2347 (assay: cells). Conditions: Homo sapiens.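 Note: growth inhibition of the cell line, read out with a cell viability assay.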
Type: functional, cell-based
Description: SANGER: Inhibition of human NCI-H2347 cell growth in a cell viability assay.

Row | Structure (SMILES) | IC50
39 | CN(NC(=O)CC(=O)NN(C)C(=S)c1ccccc1)C(=S)c1ccccc1 [ELESCLOMOL] | 0.0287 µM

These compounds were tested on UMC-11 (assay: cells). Conditions: Homo sapiens.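 Note: growth inhibition of UMC-11 cells, read out with a cell viability assay.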
Type: functional, cell-based
Description: SANGER: Inhibition of human UMC-11 cell growth in a cell viability assay.

Row | Structure (SMILES) | IC50
40 | CN(NC(=O)CC(=O)NN(C)C(=S)c1ccccc1)C(=S)c1ccccc1 [ELESCLOMOL] | > 0.2 µM

The compounds below were run on HSC-3 (assay: cells). Conditions: Homo sapiens.
Type: functional, cell-based
Description: SANGER: Inhibition of human HSC-3 cell growth in a cell viability assay.

Row | Structure (SMILES) | IC50
41 | CN(NC(=O)CC(=O)NN(C)C(=S)c1ccccc1)C(=S)c1ccccc1 [ELESCLOMOL] | 0.00302 µM

The compounds below were run on EGI-1 (assay: cells). Conditions: Homo sapiens.
Type: functional, cell-based
Description: SANGER: Inhibition of human EGI-1 cell growth in a cell viability assay.

Row | Structure (SMILES) | IC50
42 | CN(NC(=O)CC(=O)NN(C)C(=S)c1ccccc1)C(=S)c1ccccc1 [ELESCLOMOL] | 0.00838 µM

These compounds were tested on SF-295 (assay: cells). Conditions: Homo sapiens.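 Note: growth inhibition of SF-295 cells, read out with a cell viability assay.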
Type: functional, cell-based
Description: SANGER: Inhibition of human SF295 cell growth in a cell viability assay.

Row | Structure (SMILES) | IC50
43 | CN(NC(=O)CC(=O)NN(C)C(=S)c1ccccc1)C(=S)c1ccccc1 [ELESCLOMOL] | 0.0092 µM

These compounds were tested on SW948 (assay: cells). Conditions: Homo sapiens.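 Note: growth inhibition of SW948 cells, read out with a cell viability assay.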
Type: functional, cell-based
Description: SANGER: Inhibition of human SW948 cell growth in a cell viability assay.

Row | Structure (SMILES) | IC50
44 | CN(NC(=O)CC(=O)NN(C)C(=S)c1ccccc1)C(=S)c1ccccc1 [ELESCLOMOL] | > 0.2 µM

These compounds were tested on ChaGo-K-1 (assay: cells). Conditions: Homo sapiens.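 Note: growth inhibition of ChaGo-K-1 cells, read out with a cell viability assay.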
Type: functional, cell-based
Description: SANGER: Inhibition of human ChaGo-K-1 cell growth in a cell viability assay.

Row | Structure (SMILES) | IC50
45 | CN(NC(=O)CC(=O)NN(C)C(=S)c1ccccc1)C(=S)c1ccccc1 [ELESCLOMOL] | 0.0054 µM

Each compound was assayed on DMS-79 (assay: cells). Conditions: Homo sapiens, DMS-79.
Type: functional, cell-based, Homo sapiens
Description: SANGER: Inhibition of human DMS-79 cell growth in a cell viability assay.

Row | Structure (SMILES) | IC50
46 | CN(NC(=O)CC(=O)NN(C)C(=S)c1ccccc1)C(=S)c1ccccc1 [ELESCLOMOL] | > 0.2 µM

Each compound was assayed on MFH-ino (assay: cells). Conditions: Homo sapiens, MFH-ino.
Type: functional, cell-based, Homo sapiens
Description: SANGER: Inhibition of human MFH-ino cell growth in a cell viability assay.

Row | Structure (SMILES) | IC50
47 | CN(NC(=O)CC(=O)NN(C)C(=S)c1ccccc1)C(=S)c1ccccc1 [ELESCLOMOL] | > 0.2 µM

Each compound was assayed on SK-MEL-30 (assay: cells). Conditions: Homo sapiens.
Type: functional, cell-based
Description: SANGER: Inhibition of human SK-MEL-30 cell growth in a cell viability assay.

Row | Structure (SMILES) | IC50
48 | CN(NC(=O)CC(=O)NN(C)C(=S)c1ccccc1)C(=S)c1ccccc1 [ELESCLOMOL] | > 0.2 µM

These compounds were tested on CAL-72 (assay: cells). Conditions: Homo sapiens.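 Note: cell viability assay measuring inhibition of proliferation in the CAL-72 cell line.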
Type: functional, cell-based
Description: SANGER: Inhibition of human CAL-72 cell growth in a cell viability assay.

Row | Structure (SMILES) | IC50
49 | CN(NC(=O)CC(=O)NN(C)C(=S)c1ccccc1)C(=S)c1ccccc1 [ELESCLOMOL] | 0.00302 µM

What follows are compounds tested on HPAF-II (assay: cells). Conditions: Homo sapiens.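 Note: growth inhibition of HPAF-II cells, read out with a cell viability assay.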
Type: functional, cell-based
Description: SANGER: Inhibition of human HPAF-II cell growth in a cell viability assay.

Row | Structure (SMILES) | IC50
50 | CN(NC(=O)CC(=O)NN(C)C(=S)c1ccccc1)C(=S)c1ccccc1 [ELESCLOMOL] | 0.0383 µM
